Measurements reported in paper PMC4595804, “A strategy to discover decoy chemokine ligands with an anti-inflammatory activity” (Scientific Reports, 2015).

Tests used:
Assay type in all cases: cell-based
CCL22 T56A = molecular target: T1, CCL22 T56A (Homo sapiens, UniProt O00626, T56A); assay: Calcium responses induced by chemokine mutant, neutraligand protocol; conditions: 10 μM compound, 5 nM chemokine; remaining response
T1 construct: codes for the mature CCL17 or CCL22 with an N-terminal thioredoxin-hexahistidin (TRX- (His)6) tag; TRX-(His)6 (N, cleaved yes); made in house; host or cells: E. coli BL21 (DE3)

CCR4 = molecular target: T2, CCR4 (Homo sapiens, UniProt P51679); assay: EGFP-CCR4 receptor surface level / endocytosis on EGFP-CCR4+ HEK cells; conditions: without chemokine, data not shown
T2 construct: signal peptide fused to EGFP (N); expressed in transfected cells; host or cells: HEK-293
T2 sequence (P51679 1-360): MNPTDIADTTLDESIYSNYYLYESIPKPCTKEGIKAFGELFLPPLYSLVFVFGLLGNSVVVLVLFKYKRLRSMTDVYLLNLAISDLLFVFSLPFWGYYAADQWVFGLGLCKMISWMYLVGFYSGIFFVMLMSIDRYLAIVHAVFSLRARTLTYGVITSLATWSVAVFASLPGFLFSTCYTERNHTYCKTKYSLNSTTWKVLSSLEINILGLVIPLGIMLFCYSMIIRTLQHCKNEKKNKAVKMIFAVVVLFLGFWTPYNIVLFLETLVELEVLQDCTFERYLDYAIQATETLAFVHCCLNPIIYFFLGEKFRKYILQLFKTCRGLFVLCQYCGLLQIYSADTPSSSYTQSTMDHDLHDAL
Procedure: CCR4 levels were evaluated by flow cytometry (FACSCalibur, BD biosciences) using cell surface labeling of EGFP with monoclonal mouse anti-GFP (Roche Applied Science; 1:100 dilution) as primary antibody and R-phycoerythrin conjugated AffiniPure F (ab’)2 fragment goat anti-mouse (Immunotech; 1/100) as secondary antibody.

CXCL8 = CXCL8 (Homo sapiens, UniProt P10145); assay: Selectivity, neutraligand protocol, EGFP-CXCR2+ HEK cells; conditions: 10 μM compound, 5 nM CXCL8, EGFP-CXCR2+ HEK cells
Procedure: Figure 6 (a) Selectivity of CCL17 and CCL22 neutraligands towards 10 chemokines according to the “neutraligand protocol”. […] Each column represents the mean (block) ± SD (bars) of n = 3 experiments performed in triplicate. *p < 0.05; **p < 0.01; ***p < 0.005 as compared to chemokine + DMSO. (b) Chemokine neutraligands inhibited CCR4 endocytosis induced by CCL22 or CCL17. EGFP-CCR4^+ HEK cells were incubated for 30 min with DMSO or chemokine (100 nM CCL22 or CCL17) in the presence or absence of test compounds. […] Cell surface EGFP-tagged CCR4 receptors were measured by EGFP antibody labeling and flow cytometry analysis. CCR4 internalization was expressed as a percentage of total receptor surface expression calculated using control cells incubated with DMSO (100%). […] The number of migrating cells in the presence of chemokine and compounds were expressed as the corresponding percentages. Results were analyzed by fitting the experimental curves (% of migrating cells vs log compound concentration) using the Kaleidagraph software program, and the corresponding IC50 values were calculated. […]
Dye loaded cells were placed in the FlexStation 3 (Molecular Devices). Calcium mobilization was measured at 401 and 475 nm emission fluorescence after excitation at 355 nm. […] Raw fluorescence data (at 401 and 475 nm) were exported and the ratio 401/475 was calculated. […]

T1 sequence (O00626 25-93 T56A): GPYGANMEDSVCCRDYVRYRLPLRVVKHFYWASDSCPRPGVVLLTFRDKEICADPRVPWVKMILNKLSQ
CXCL8, sequence (P10145 28-99 limits assumed): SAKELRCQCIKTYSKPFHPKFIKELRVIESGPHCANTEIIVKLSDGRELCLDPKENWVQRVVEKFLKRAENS

Row | Structure (SMILES) | calcium response induced by CCL22 T56A preincubated with compound (CCL22 T56A) | effect on CCR4 receptor surface level on its own (CCR4) | effect on calcium responses induced by CXCL8 (CXCL8)
1 | O=C(OCC(O)CO)c1ccccc1O (stereo not drawn) [GPN136, 2,3-dihydroxypropyl 2-hydroxybenzoate] | 40.0 ± 6.0% | Neither GPN279 nor GPN136 did alter | no effect
2 | CC(C)=CCn1cnc2c1c(=O)n(C)c(=O)n2C [GPN279, 1,3-dimethyl-7-(3-methylbut-2-enyl)-1H-purine-2,6(3H, 7H)-dione] | neither inhibited WT nor CCL22 mutants | Neither GPN279 nor GPN136 did alter | no effect
